Assay results as given in US12428395B2, “Heterocyclic compounds as kinase inhibitor and uses thereof” (SPEROGENIX THERAPEUTICS LIMITED, priority 2019, dated 2025).

Tests used:
CHK-1 kinase = CHK-1 kinase (Homo sapiens (Human), UniProt O14757); assay: CHK-1 Kinase Assay (Z-LYTE based TR-FRET); assay type: biochemical; conditions: for inhibition at 1 µM: 1 μM compound, read-out: % Inhibition of CHK-1 enzyme activity @ 1 μM; for inhibition at 5 µM: 5 μM compound, read-out: % Inhibition of CHK-1 enzyme activity @ 5 μM
Protocol: IC50 values of compounds for inhibition of CHK-1 kinase or percent inhibition at defined concentrations were determined by Z-LYTE™ based TR-FRET assay. Kinase reactions were performed in a 10 μL volume in low-volume 384-well plates. The concentration of substrate (Ser Thr 19) was maintained at 2 μM in the assay, and the kinase reaction buffer consisted of 50 mM HEPES pH 7.5, 0.01% BRIJ-35, 10 mM MgCl2, 1 mM EGTA, 2 mM DTT. Serially diluted compounds (3-fold) in DMSO (0.5% in final reaction) were incubated with cocktail of CHK-1 kinase (5 ng/ml; Cat #P3040, ThermoFisher), substrate Ser Thr 19, (2 μM; Cat #PV4529, ThermoFisher), ATP (53 μM; Cat #PV3227, ThermoFisher) and buffer. Kinase reactions were allowed to proceed for 1 hour at room temperature after which 5 μL of a 1:256 dilution of Development Reagent A was added. The plate was allowed to incubate at room temperature for 60 minutes before being read on a BMG Pherastar plate reader using the Z-LYTE™ filter block for Z-LYTE™ TR-FRET. The resulting TR-FRET emission ratio was used to calculate percent inhibition by normalizing with the control using the following formula: — [% Inhibition=1−{(% Phosphorylationsample/% Phosphorylationcontrol (0% Inhibition)}·100] For calculation of IC50, the percent inhibition obtained was plotted against the concentration of inhibitor, and the data was fit to a sigmoidal dose-response curve with a variable slope. The IC50 was calculated from the curve.

CHK-2 kinase = CHK-2 kinase (Homo sapiens (Human), UniProt O96017); assay: CHK-2 Kinase Assay (Z-LYTE based TR-FRET); assay type: biochemical; conditions: for inhibition at 0.1 µM: 0.1 μM compound, read-out: % Inhibition of CHK-2 enzyme activity @ 0.1 μM; for inhibition at 1 µM: 1 μM compound, read-out: % Inhibition of CHK-2 enzyme activity @ 1 μM
Protocol: IC50 values of compounds for inhibition of CHK-2 kinase or percent inhibition at defined concentrations were determined by Z-LYTE™ based TR-FRET assay. Kinase reactions were performed in a 10 μL volume in low-volume 384-well plates. The concentration of substrate (Ser Thr 07) was maintained at 1 μM in the assay, and the kinase reaction buffer consisted of 50 mM HEPES pH 7.5, 0.01% BRIJ-35, 10 mM MgCl2, 1 mM EGTA. Serially diluted compounds (3-fold) in DMSO (0.5% in final reaction) were incubated with cocktail of CHK2 kinase (5 ng/ml; Cat #PV3367, ThermoFisher), substrate Ser Thr 07, (1 μM; Cat #PV3208, ThermoFisher), ATP (84 μM; Cat #PV3227, ThermoFisher) and buffer. Kinase reactions were allowed to proceed for 1 hour at room temperature after which 5 μL of a 1:45000 dilution of Development Reagent A was added. The plate was allowed to incubate at room temperature for 60 minutes before being read on a BMG Pherastar plate reader using the Z-LYTE™ filter block for Z-LYTE™ TR-FRET.
The resulting TR-FRET emission ratio was used to calculate percent inhibition by normalizing with the control using the following formula: — [% Inhibition=1−{(% Phosphorylationsample/% Phosphorylationcontrol (0% inhibition)}·100]
For calculation of IC50, the percent inhibition obtained was plotted against the concentration of inhibitor, and the data was fit to a sigmoidal dose-response curve with a variable slope. The IC50 was calculated from the curve.

A549 = assay: Cell viability assay (resazurin), A549; assay type: cell-based; conditions: Homo sapiens; A549 lung epithelial carcinoma cells
Protocol: (§1) Protocol for Cell Viability Assay in Different Cell Lines for CHK-1 Inhibitors:
(§2) Cells were allowed to grow at 37° C. for 24 hr (adherent cells) in 5% CO2 (culture conditions) in a Nuaire incubator (humidified). Following 24 hr (adherent cells), serially diluted compounds (100 μl) were added to the culture plate (immediately after plating in case of suspension cells) and the cultures were further incubated in culture conditions for 72-144 hr depending on the cell type. Experiment was terminated at the completion of respective incubation with drug by replacing the medium with 100 μl of 1 mM of resazurin (R7017; Sigma) prepared in culture medium and the plates were further incubated in culture conditions for 4 hr. In case of 144 hr incubation with the drug, the drug was replenished once with fresh medium after 72 hr. Fluorescence was then measured using a multimodal plate reader (Biotek Synergy Neo) at an excitation wavelength of 535 nm and emission wavelength of 590 nm to obtain relative fluorescence units. Data analysis was done by subtracting the background fluorescence (only medium blank) value from each reading and then normalizing with the vehicle control (DMSO treated cells) to obtain percent survival/proliferation. Percent survival at different doses was used to calculate IC50 by fitting the curve to the “four-parameter variable slope logistic model” using Prism Graph Pad.

AsPC-1 = assay: Cell viability assay (resazurin), AsPC-1; assay type: cell-based; conditions: Homo sapiens, ASPC1; AsPC-1 pancreatic cancer cells
Protocol: as §1, §2

HCT116 = assay: Cell viability assay (resazurin), HCT116; assay type: cell-based; conditions: Homo sapiens, HCT-116; HCT116 colorectal carcinoma cells
Protocol: as §1, §2

MDA_MB-231 = assay: Cell viability assay (resazurin), MDA_MB-231; assay type: cell-based; conditions: Homo sapiens, MDA-MB-231; MDA_MB-231 TNBC cells
Protocol: as §1, §2

MiaPaCa-2 = assay: Cell viability assay (resazurin), MiaPaCa-2; assay type: cell-based; conditions: Homo sapiens, MIA PaCa-2; MiaPaCa-2 pancreatic cancer cells
Protocol: as §1, §2

Panc-10.05 = assay: Cell viability assay (resazurin), Panc-10.05; assay type: cell-based; conditions: Homo sapiens, Panc1005; Panc-10.05 cells
Protocol: as §1, §2

THP1 = assay: Cell viability assay (resazurin), THP1; assay type: cell-based; conditions: Homo sapiens, THP-1; THP1 peripheral blood cells
Protocol: as §1, §2

HT-29 = assay: Cell viability assay (resazurin), HT-29; assay type: cell-based; conditions: Homo sapiens; HT-29 colon cancer cells
Protocol: as §1, §2

Sequence of CHK-1 kinase (O14757 whole entry): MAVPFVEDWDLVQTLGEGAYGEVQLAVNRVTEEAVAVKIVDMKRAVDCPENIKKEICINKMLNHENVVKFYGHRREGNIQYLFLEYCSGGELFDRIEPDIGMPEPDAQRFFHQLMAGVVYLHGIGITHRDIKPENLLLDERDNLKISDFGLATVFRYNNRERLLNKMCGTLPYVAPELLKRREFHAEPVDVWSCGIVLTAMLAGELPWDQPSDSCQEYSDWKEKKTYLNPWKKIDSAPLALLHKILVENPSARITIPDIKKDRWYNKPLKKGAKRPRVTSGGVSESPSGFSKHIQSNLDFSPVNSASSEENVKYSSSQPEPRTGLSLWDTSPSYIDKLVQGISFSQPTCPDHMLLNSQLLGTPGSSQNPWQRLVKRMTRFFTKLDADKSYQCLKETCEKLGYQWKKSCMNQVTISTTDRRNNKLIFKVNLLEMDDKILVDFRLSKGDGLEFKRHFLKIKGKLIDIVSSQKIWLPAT
Sequence of CHK-2 kinase (O96017 whole entry): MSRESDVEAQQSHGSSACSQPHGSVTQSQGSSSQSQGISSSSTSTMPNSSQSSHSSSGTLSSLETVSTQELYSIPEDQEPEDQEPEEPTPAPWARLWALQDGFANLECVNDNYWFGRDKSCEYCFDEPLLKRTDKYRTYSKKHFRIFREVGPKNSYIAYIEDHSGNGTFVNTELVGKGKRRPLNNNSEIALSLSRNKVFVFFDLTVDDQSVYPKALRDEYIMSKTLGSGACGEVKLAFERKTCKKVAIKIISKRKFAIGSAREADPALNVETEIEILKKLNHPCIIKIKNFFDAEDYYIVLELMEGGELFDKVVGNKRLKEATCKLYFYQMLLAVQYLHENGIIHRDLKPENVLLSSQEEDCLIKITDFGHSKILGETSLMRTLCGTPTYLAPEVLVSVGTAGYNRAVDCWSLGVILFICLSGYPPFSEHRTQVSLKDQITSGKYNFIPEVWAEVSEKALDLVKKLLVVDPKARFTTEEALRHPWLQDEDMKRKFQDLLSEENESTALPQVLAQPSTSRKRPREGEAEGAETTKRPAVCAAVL

Row | IC50 (CHK-1 kinase) [µM] | inhibition at 1 µM (CHK-1 kinase) [%] | inhibition at 5 µM (CHK-1 kinase) [%] | inhibition at 0.1 µM (CHK-2 kinase) [%] | inhibition at 1 µM (CHK-2 kinase) [%] | IC50 (A549) [µM] | IC50 (AsPC-1) [µM] | IC50 (HCT116) [µM] | IC50 (MiaPaCa-2) [µM] | IC50 (Panc-10.05) [µM] | IC50 (THP1) [µM] | IC50 (HT-29) [µM] | SMILES | IC50 (MDA_MB-231) [µM]
1 | 0.092 | 93 | 98 | 12.1 | 36.7 | > 30 | > 30 | > 30 | > 30 | > 30 | > 30 | > 30 | N#Cc1cnc(Nc2cc(NCC3CCNCC3)c(C(N)=O)nn2)cn1 [1.3, 6-((5-cyanopyrazin-2-yl)amino)-4-((piperidin-4-ylmethyl)amino)pyridazine-3-carboxamide] | > 30
2 | 0.07 | 96 | 100 | 8.28 | 30 | > 30 | > 30 | > 30 | > 30 | > 30 | > 30 | > 30 | N#Cc1cnc(Nc2cc(NCC3CNCCO3)c(C(N)=O)nn2)cn1 (centres unmarked) [1.2, 6-((5-cyanopyrazin-2-yl)amino)-4-((morpholin-2-ylmethyl)amino)pyridazine-3-carboxamide] | > 30
